Experiments:
Cannabinoid receptor 2 [1] = molecular target: T1, Cannabinoid receptor 2 (Homo sapiens, UniProt P34972); test: Displacement of [3H]CP-55,940 from human CB2 receptor extracted from CHO cell membrane assessed as inhibition constant incubated for 90 mins; assay type: cell membranes
Cannabinoid receptor 1 [2] = molecular target: T2, Cannabinoid receptor 1 (Rattus norvegicus, UniProt P20272); test: Displacement of [3H]CP-55,940 from Sabra rat brain synaptosome CB1 receptor assessed as inhibition constant incubated for 90 mins; assay type: subcellular
T2 sequence (P20272 whole entry): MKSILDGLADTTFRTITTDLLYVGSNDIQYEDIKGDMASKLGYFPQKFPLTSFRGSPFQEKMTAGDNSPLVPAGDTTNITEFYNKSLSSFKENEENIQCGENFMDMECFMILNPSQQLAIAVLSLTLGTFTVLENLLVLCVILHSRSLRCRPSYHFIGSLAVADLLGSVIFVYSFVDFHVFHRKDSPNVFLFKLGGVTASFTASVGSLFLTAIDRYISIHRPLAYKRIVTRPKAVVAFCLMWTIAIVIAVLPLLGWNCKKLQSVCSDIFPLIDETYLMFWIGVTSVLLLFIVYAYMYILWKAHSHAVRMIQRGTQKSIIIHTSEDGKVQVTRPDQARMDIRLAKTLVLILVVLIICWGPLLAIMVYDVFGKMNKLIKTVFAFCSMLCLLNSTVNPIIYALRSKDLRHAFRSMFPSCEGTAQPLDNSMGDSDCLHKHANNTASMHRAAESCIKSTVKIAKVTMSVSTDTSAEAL

Cannabinoid receptor 1 [3] = molecular target: T3, Cannabinoid receptor 1 (Homo sapiens, UniProt P21554); test: Antagonist activity at human CB1 receptor expressed in HEK293T cells co-transfected with pCRE-Luc plasmid preincubated with compound for 30 mins followed by WIN55,212 addition and measured after 6 hrs by Dual-luciferase assay; assay type: functional, cell-based
T3 sequence (P21554 whole entry): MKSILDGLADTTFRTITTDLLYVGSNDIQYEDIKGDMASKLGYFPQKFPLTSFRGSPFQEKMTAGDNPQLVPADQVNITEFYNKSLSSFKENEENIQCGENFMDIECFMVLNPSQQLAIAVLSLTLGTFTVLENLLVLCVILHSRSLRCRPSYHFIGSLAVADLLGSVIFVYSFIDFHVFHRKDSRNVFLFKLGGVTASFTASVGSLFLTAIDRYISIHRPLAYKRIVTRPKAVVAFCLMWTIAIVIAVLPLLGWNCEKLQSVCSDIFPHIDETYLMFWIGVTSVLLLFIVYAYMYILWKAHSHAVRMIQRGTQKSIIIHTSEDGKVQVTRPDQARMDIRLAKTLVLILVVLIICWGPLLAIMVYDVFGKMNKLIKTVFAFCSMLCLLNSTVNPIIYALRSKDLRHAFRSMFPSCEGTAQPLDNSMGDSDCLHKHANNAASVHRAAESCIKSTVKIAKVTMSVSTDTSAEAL

Cannabinoid receptor 2 [4] = molecular target: T1, Cannabinoid receptor 2; test: Agonist activity at human CB2 receptor expressed in HEK293T cells co-transfected with pCRE-Luc plasmid preincubated with compound for 30 mins followed by forskolin addition and measured after 6 hrs by Dual-luciferase assay; assay type: functional, cell-based
Cannabinoid receptor 2 [5] = molecular target: T1, Cannabinoid receptor 2; test: Binding affinity to CB2 receptor (unknown origin) assessed as inhibition constant
Cannabinoid receptor 1 [6] = molecular target: T3, Cannabinoid receptor 1; test: Binding affinity to CB1 receptor (unknown origin) assessed as inhibition constant
[7] = Selectivity ratio of Ki for CB1 receptor (unknown origin) to Ki for CB2 receptor (unknown origin)
Cannabinoid receptor 1 [8] = molecular target: T2, Cannabinoid receptor 1; test: Displacement of [3H]HU-243 from Sabra rat brain synaptosome CB1 receptor assessed as inhibition constant incubated for 90 mins; assay type: subcellular
Cannabinoid receptor 2 [9] = molecular target: T1, Cannabinoid receptor 2; test: Displacement of [3H]HU-243 from CB2 receptor (unknown origin) extracted from green monkey COS-7 cell membrane assessed as inhibition constant incubated for 90 mins; assay type: cell membranes
Cannabinoid receptor 1 [10] = molecular target: T2, Cannabinoid receptor 1; test: Displacement of [3H]HU-243 from Sabra rat brain synaptosome CB1 receptor assessed as inhibition constant; assay type: subcellular
Cannabinoid receptor 1 [11] = molecular target: T3, Cannabinoid receptor 1; test: Displacement of [3H]CP-55,940 from human CB1 receptor extracted from HEK293 cell membrane assessed as inhibition constant incubated for 90 mins by liquid scintillation spectrophotometric analysis; assay type: cell membranes
Cannabinoid receptor 2 [12] = molecular target: T1, Cannabinoid receptor 2; test: Displacement of [3H]CP-55,940 from human CB2 receptor extracted from HEK293 cell membrane assessed as inhibition constant incubated for 90 mins by liquid scintillation spectrophotometric analysis; assay type: cell membranes
[13] = Inhibition of [14C]-arachidonoylethanolamide uptake in rat RBL-2H3 cells assessed as increase in AEA level incubated for 5 mins by scintillation counting; assay type: functional, cell-based; settings: RBL-2H3, 5 min
Homo sapiens = species: Homo sapiens; test: Selectivity ratio of Ki for human CB1 receptor extracted from HEK293 cell membrane to Ki for human CB2 receptor extracted from HEK293 cell membrane
[14] = molecular target: T4, Transient receptor potential cation channel subfamily V member 2 (Rattus norvegicus, UniProt Q9WUD2); test: Agonist activity at recombinant rat TRPV2 expressed in HEK293 cells assessed as increase in [Ca2+]i by Fluo-4AM based calcium assay; assay type: cell-based
T4 sequence (Q9WUD2 whole entry): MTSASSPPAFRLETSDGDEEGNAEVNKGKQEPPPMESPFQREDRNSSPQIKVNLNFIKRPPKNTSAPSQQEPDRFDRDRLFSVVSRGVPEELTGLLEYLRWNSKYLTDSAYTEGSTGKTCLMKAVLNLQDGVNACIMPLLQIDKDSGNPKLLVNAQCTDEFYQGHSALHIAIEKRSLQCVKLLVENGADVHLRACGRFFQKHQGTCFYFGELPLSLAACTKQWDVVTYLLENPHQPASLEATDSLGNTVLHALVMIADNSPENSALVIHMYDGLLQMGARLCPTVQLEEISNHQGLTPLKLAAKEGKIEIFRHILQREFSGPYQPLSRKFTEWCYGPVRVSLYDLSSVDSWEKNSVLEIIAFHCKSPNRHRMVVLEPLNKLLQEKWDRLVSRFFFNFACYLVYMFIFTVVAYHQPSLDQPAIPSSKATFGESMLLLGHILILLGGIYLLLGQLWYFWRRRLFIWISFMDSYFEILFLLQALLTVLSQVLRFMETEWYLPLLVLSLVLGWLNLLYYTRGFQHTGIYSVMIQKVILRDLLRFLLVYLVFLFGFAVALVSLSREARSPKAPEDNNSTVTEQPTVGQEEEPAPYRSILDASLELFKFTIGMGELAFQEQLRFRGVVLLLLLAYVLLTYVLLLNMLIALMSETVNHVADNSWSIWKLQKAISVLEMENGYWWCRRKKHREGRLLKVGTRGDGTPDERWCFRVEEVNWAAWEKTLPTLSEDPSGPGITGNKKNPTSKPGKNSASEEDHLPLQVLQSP

[15] = molecular target: G-protein coupled receptor 55 (Homo sapiens, UniProt Q9Y2T6); test: Antagonist activity at GPR55 (unknown origin)
Sequence of G-protein coupled receptor 55 (Q9Y2T6 whole entry): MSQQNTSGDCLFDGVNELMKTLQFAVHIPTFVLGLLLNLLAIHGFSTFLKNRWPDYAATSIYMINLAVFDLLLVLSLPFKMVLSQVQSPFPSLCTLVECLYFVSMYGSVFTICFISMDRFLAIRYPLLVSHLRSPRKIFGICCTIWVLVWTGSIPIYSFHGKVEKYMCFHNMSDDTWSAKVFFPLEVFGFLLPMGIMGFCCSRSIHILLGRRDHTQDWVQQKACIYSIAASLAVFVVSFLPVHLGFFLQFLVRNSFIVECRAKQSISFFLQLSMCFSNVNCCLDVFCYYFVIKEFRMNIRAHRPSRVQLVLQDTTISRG

[16] = molecular target: T5, Equilibrative nucleoside transporter 1 (Homo sapiens, UniProt Q99808); test: Inhibition of ENT-1 (unknown origin)
T5 sequence (Q99808 whole entry): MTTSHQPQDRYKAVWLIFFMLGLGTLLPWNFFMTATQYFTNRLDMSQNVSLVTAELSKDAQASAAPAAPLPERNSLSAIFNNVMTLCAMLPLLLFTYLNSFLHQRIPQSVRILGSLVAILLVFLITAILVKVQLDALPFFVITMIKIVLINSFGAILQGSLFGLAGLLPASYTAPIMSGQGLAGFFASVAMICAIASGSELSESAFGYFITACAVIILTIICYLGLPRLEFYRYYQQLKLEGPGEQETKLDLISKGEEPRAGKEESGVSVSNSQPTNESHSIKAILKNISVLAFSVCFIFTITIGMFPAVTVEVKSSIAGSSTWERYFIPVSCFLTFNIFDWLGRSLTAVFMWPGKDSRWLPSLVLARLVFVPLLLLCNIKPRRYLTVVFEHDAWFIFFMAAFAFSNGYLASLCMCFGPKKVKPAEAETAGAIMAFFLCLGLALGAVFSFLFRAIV

[17] = molecular target: Transient receptor potential cation channel subfamily A member 1 (Rattus norvegicus, UniProt Q6RI86); test: Agonist activity at recombinant rat TRPA1 expressed in HEK293 cells assessed as increase in [Ca2+]i by Fluo-4AM based calcium assay; assay type: cell-based
Sequence of Transient receptor potential cation channel subfamily A member 1 (Q6RI86 whole entry): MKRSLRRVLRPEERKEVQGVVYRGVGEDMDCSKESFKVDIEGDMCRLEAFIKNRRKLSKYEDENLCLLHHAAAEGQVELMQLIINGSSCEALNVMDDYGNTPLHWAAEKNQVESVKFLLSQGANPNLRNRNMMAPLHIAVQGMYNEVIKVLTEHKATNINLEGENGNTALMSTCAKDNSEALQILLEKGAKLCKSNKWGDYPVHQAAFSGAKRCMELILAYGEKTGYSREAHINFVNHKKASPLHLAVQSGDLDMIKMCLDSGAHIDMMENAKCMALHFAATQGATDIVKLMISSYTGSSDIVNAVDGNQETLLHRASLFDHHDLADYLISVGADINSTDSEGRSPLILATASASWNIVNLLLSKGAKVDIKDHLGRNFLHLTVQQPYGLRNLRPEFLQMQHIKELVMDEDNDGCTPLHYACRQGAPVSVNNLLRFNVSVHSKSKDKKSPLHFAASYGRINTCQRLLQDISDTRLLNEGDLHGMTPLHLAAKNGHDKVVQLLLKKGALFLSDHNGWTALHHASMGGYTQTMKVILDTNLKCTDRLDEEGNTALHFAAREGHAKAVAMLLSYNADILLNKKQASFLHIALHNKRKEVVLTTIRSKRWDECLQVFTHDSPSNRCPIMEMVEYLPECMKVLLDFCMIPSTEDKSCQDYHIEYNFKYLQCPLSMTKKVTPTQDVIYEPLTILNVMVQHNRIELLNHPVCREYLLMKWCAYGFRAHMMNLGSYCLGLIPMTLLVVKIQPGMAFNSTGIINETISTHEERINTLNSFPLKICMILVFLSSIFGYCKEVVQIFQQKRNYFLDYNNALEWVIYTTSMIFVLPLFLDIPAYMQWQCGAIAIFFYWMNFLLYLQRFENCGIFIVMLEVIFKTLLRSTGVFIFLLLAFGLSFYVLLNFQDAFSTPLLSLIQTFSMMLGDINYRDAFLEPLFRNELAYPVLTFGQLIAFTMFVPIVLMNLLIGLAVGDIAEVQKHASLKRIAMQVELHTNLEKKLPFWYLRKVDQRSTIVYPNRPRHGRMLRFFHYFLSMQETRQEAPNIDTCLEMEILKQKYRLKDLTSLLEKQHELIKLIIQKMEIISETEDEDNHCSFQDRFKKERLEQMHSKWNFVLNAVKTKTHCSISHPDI

D(2) dopamine receptor [18] = molecular target: T6, D(2) dopamine receptor (Homo sapiens, UniProt P14416); test: Partial agonist activity at D2-high receptor (unknown origin)
T6 sequence (P14416 whole entry): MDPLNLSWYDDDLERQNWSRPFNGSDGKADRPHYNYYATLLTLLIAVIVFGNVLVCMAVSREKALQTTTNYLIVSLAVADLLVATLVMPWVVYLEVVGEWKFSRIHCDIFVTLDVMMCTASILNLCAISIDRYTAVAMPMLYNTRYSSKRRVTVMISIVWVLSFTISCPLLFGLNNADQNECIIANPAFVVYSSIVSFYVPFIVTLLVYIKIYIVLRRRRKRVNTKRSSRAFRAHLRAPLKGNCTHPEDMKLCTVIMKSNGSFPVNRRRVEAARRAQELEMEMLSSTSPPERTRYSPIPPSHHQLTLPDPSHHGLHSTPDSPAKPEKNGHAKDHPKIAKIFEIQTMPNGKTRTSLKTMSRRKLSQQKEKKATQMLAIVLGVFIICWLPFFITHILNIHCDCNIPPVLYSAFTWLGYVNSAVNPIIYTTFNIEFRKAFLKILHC

[19] = molecular target: T7, 5-hydroxytryptamine receptor 1A (Homo sapiens, UniProt P08908); test: Agonist activity at 5-HT1A (unknown origin); assay type: functional
T7 sequence (P08908 whole entry): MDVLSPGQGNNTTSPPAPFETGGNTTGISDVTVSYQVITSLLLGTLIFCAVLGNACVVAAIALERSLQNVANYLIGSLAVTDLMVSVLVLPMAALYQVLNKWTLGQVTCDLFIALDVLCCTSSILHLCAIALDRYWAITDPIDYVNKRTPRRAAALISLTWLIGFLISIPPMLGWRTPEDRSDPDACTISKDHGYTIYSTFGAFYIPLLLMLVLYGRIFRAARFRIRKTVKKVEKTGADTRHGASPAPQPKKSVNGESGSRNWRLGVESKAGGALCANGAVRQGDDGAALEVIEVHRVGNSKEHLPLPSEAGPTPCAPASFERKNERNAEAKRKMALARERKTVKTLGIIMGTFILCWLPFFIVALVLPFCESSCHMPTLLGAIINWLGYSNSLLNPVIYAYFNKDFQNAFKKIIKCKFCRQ

[20] = molecular target: Transient receptor potential cation channel subfamily M member 8 (Rattus norvegicus, UniProt Q8R455); test: Antagonist activity at recombinant rat TRPM8 expressed in HEK293 cells assessed as inhibition of icillin-induced intracellular calcium level preincubated with compound for 5 mins followed by icillin addition by Fluo-4AM based calcium assay; assay type: cell-based
[21] = molecular target: T8, Transient receptor potential cation channel subfamily V member 1 (Homo sapiens, UniProt Q8NER1); test: Agonist activity at recombinant human TRPV1 expressed in HEK293 cells assessed as increase in [Ca2+]i level by Fluo-4AM based calcium assay; assay type: cell-based
T8 sequence (Q8NER1 whole entry): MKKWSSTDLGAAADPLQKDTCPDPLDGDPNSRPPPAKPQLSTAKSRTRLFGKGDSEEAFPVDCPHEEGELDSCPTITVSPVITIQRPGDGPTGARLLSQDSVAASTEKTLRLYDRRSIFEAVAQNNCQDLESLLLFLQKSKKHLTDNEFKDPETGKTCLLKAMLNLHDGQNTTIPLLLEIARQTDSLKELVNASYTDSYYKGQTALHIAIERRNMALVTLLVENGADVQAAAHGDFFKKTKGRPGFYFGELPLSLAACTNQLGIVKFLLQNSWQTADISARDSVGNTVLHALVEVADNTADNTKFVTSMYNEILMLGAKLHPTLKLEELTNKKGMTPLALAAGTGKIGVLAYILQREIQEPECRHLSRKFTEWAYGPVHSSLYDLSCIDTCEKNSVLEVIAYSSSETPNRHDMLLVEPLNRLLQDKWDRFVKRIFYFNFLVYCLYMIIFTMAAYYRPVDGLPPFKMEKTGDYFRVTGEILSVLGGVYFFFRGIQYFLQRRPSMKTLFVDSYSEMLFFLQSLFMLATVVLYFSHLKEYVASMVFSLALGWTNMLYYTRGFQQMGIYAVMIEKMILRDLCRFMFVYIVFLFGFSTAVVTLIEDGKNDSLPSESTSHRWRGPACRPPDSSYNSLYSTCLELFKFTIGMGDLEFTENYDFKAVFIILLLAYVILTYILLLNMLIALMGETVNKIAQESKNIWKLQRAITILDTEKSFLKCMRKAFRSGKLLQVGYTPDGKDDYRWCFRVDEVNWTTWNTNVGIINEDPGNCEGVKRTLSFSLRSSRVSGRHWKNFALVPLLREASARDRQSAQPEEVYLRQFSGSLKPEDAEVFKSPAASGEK

[22] = molecular target: T8, Transient receptor potential cation channel subfamily V member 1; test: Agonist activity at human TRPV1 receptor expressed in HEK293 cells assessed as effect on [Ca2+]i preincubated with capsazepine for 30 mins followed by compound addition by Fluo-3 probe based fluorescence analysis; assay type: cell-based
[23] = molecular target: T9, Fatty-acid amide hydrolase 1 (Mus musculus, UniProt O08914); test: Inhibition of FAAH-mediated [14C]-AEA hydrolysis in mouse N18TG2 cell membrane incubated for 30 mins by scintillation counting; assay type: cell membranes
T9 sequence (O08914 whole entry): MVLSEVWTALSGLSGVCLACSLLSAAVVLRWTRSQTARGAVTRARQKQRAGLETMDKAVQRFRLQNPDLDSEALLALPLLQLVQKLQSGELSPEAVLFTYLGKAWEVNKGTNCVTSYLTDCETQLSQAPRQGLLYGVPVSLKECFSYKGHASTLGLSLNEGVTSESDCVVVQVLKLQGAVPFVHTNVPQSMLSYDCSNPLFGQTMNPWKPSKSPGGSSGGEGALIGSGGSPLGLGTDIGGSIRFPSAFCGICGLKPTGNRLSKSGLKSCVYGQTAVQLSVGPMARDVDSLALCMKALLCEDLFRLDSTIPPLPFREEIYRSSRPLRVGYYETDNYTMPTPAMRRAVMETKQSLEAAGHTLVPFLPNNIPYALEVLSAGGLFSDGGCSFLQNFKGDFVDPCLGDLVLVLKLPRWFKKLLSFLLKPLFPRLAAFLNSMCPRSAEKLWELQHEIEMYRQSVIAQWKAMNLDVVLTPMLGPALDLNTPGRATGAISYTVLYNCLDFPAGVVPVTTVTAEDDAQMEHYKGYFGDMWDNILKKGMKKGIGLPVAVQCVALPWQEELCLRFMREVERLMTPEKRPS

D(2) dopamine receptor [24] = molecular target: T6, D(2) dopamine receptor; test: Partial agonist activity at D2-low receptor (unknown origin)
[25] = molecular target: Sodium channel protein type 9 subunit alpha (Homo sapiens, UniProt Q15858); test: Inhibition of human Nav1.7 expressed in HEK293 cells by whole cell electrophysiology recording; assay type: cell-based

T1 sequence (P34972 whole entry): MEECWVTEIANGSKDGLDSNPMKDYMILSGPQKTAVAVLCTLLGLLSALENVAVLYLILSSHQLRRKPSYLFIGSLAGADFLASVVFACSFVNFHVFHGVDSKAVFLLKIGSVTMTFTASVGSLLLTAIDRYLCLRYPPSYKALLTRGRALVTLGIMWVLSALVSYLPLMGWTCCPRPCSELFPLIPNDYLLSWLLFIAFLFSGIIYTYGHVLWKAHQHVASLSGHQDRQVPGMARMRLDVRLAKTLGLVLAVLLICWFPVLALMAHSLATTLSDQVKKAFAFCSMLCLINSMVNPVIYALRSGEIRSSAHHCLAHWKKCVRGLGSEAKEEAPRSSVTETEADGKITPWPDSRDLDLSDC

For `CCCCCc1cc(O)c([C@@H]2C=C(CO)CC[C@H]2C(C)C)c(O)c1`, the Ki (Cannabinoid receptor 2 [1]) was > 1000 nM and the Ki (Cannabinoid receptor 1 [2]) was > 1000 nM.

For `C=C(C)[C@H]1CCC(C)=C[C@@H]1c1c(O)cc(CCCCC)c(C(=O)OCC(O)CCC)c1O` (stereo partly drawn), the IC50 (Cannabinoid receptor 1 [3]) was 210 nM and the EC50 (Cannabinoid receptor 2 [4]) was 90 nM.

In the case of `COc1cc(C(C)(C)CCCCCCN=C=S)cc(OC)c1[C@H]1C=C(CO)[C@H]2C[C@@H]1C2(C)C`, the Ki (Cannabinoid receptor 2 [5]) is reported as 13.1 nM, the Ki (Cannabinoid receptor 1 [6]) is reported as 2670 nM and the Ratio Ki [7] is reported as 203.

With `C=C(C)[C@@H]1CCC(CO)=C[C@H]1c1c(O)cc(CCCCC)cc1O` the Ki (Cannabinoid receptor 1 [8]) was > 1000 nM and the Ki (Cannabinoid receptor 2 [9]) was > 1000 nM.

In the case of `CCCCCCC(C)(C)c1cc(OC)c([C@H]2C=C(CO)[C@H]3C[C@@H]2C3(C)C)c(OC)c1`, the Ki (Cannabinoid receptor 1 [10]) is reported as > 10000 nM.

With `C=C(C)[C@H]1CCC(C)=C[C@@H]1c1c(OC)cc(C(C)(C)CCCCCC)cc1OC` the Ki (Cannabinoid receptor 1 [8]) was > 1000 nM and the Ki (Cannabinoid receptor 2 [9]) was > 1000 nM.

For `C=C(C)C1CCC(C)=CC1O` (stereo not drawn), the Ki (Cannabinoid receptor 1 [11]) was > 1000 nM and the Ki (Cannabinoid receptor 2 [12]) was 375 nM.

Molecule `C=C(C)[C@H]1CCC(CO)=C[C@@H]1c1c(O)cc(C(C)(C)CCCCCC)cc1O` has a Ki (Cannabinoid receptor 1 [8]) of 2.5 nM, an IC50 [13] of 7000 nM and a Ki (Cannabinoid receptor 2 [9]) of 44 nM.

With `C=C(C)[C@@H]1CCC(C)=C[C@H]1c1c(O)cc(CCC)cc1O` [CANNABIDIVARIN] the Ki (Cannabinoid receptor 1 [6]) was > 1000 nM.

`C=C(C)[C@@H]1CCC(C)=C[C@H]1c1c(O)cc(CCCCC)c(C(=O)OC)c1O` gave a Ki (Cannabinoid receptor 1 [11]) of 3.1 nM, a Ki (Cannabinoid receptor 2 [12]) of 0.8 nM and a Ratio Ki (Homo sapiens) of 3.9.

`C=C(C)[C@H]1CCC(C)=C[C@@H]1c1c(O)cc(CCCCC)c(C(=O)OCCO)c1O` showed a Ki (Cannabinoid receptor 1 [11]) of 259 nM.

`C=C(C)[C@H]1CCC(C)=C[C@@H]1c1c(O)cc(C(C)(C)CCCCCC)cc1O` showed a Ki (Cannabinoid receptor 1 [8]) of 17.4 nM, an IC50 [13] of 10000 nM and a Ki (Cannabinoid receptor 2 [9]) of 211 nM.

In the case of `C=C(C)[C@@H]1CCC(C)=C[C@H]1c1c(O)cc(CCCCC)cc1O` [CANNABIDIOL], the EC50 [14] is reported as 1250 nM, the IC50 [15] is reported as 445 nM and the Ki [16] is reported as 250 nM. For the same molecule, the EC50 [17] was 110 nM, the IC50 [13] was 22000 nM and the Ki (D(2) dopamine receptor [18]) was 0.066 nM. The EC50 [19] was 16000 nM, the IC50 [20] was 60 nM and the EC50 [21] was 1000 nM. It also gave an EC50 [22] of 3200 nM, an IC50 [23] of 27500 nM and a Ki (D(2) dopamine receptor [24]) of 2800 nM. For the same molecule, the IC50 [25] was 1820 nM.

From ChEMBL document CHEMBL6078669, “Stereoisomers of cannabidiols and their pharmacological activities - A potentially novel direction for cannabinoids” (Bioorg Med Chem, 2025)
